Results from patent US20040259865A1, “Pyrimidone compounds and pharmaceutical compositions containing the same” (priority 2001, published 2004).
Where two headings read alike, the source gives them in different places.

Columns and labels:
[1] = system: guinea pig distal colon longitudinal muscles; conditions: electrical stimulation, cited from earlier work; for pA2 value of the antagonistic action: against relaxing action of NECA
[2] = system: guinea pig distal colon longitudinal muscles; conditions: cited from earlier work; for EC50: KCl in the presence of tetrodotoxin, read-out: Relaxing action EC50
colon tract [3] = test: Inhibitory effect of adenosine receptor antagonist on suppressing action of NECA on Carbachol-stimulated contraction of the colon tract; parameters: species or system rat; conditions: for Contraction (%) Mean: Carbachol 0.3 μM + NECA 1 μM = 0%, Carbachol 0.3 μM = 100%
Experimental: (§1) The abdomen of a rat under anesthesia with ether was opened, and from the rectum to the cecum was excised therefrom and soaked in ice-cooled Tyrode solution (containing 136 mM NaCl, 2.7 mM KCl, 0.4 mM NaH2PO4.2H2O, 5.6 mM glucose, 11.9 mM NaHCO3, 1 mM MgCl2.6H2O, 1.8 mM CaCl2). Surrounding connective tissues were removed, and the intestinal tract was cut at positions apart by 1.5 cm from the rectum and by 3 cm from the cecum, to give a colon tract of about 3 cm in full length. Both the terminals of the colon tract were pinched respectively with Serrefines (trade name) to which a string had been connected, and the colon tract with the side of the cecum facing upward was immediately suspended in a Magnus tube filled with Tyrode solution previously warmed at 37° C., and then equilibrated by bubbling with a gas (O2/CO2=95/5). The string connected to the Serrefines (trade name) at the side of the cecum was suspended, and the change in the length of the colon tract was detected with an amplifier for strain pressure (Nihon Kohden Corporation).
(§2) In the experiment, 3 samples were used.

colon tract [4] = test: Inhibitory effect of NECA on Carbachol-stimulated contraction of the colon tract; parameters: species or system rat; conditions: Carbachol 1.44 μM (singly added) = 100%
Experimental: as §1, with “Surrounding” for “The abdomen of a rat under anesthesia with ether was opened, and from the rectum to the cecum was excised therefrom and soaked in ice-cooled Tyrode solution (containing 136 mM NaCl, 2.7 mM KCl, 0.4 mM NaH2PO4.2H2O, 5.6 mM glucose, 11.9 mM NaHCO3, 1 mM MgCl2.6H2O, 1.8 mM CaCl2). Surrounding”
as §2

SD IGS rats [5] = test: Evaluation of defecation-promoting action (Tables 8 and 10); assay type: in vivo, rat
From the text: For example, the defecation-promoting actions of 8-phenyltheophylline (“8-PT” in the table below) and 5-[6-amino-8-(3-fluorophenyl)-9H-9-purinyl]-1-methyl-1,2-di hydro-2-pyridinone (Compound II in the table below) disclosed in Example Number 5 described in WO 2001/2400 were as shown below. 8-PT can be easily produced according to the description of Drug Development Research 47: 45-53 (1999), or is easily available as a commercial product (in this test, it was purchased from Sigma).
That is, SD IGS rats (6- to 7-weeks-old, from Charles River) were placed in cages (3 animals/cage) and preliminarily allowed food and water ad libitum and raised for 1 week. On the day of the experiment, their weight was measured, a water-absorbing sheet was placed below each cage, and the animals were fasted but allowed water ad libitum throughout the experiment. Thee hours after fasting was initiated, the fecal pellets were recovered from each cage and observed for abnormality before the experiment, and then the compound suspended in 0.5% (w/v) methyl cellulose (MC) was orally administered in a dose of 5 ml/kg. On one hand, 0.5% (w/v) MC only was orally given to the control group. After administration of the compound, the rats were returned to the cage provided with a new water-absorbing sheet, and 180 minutes after the administration, the fecal pellets on the water-absorbing sheet were recovered from each cage, and the external appearance was observed, and the number of fecal pellets was counted. The number of fecal pellets is expressed per each cage.

SD IGS rats [6] = test: Defecation-promoting action in rat (Test Example 2); assay type: in vivo; conditions: for The number of fecalpellets/3 rats: 180 minutes after administration
Experimental: (§3) SD IGS rats (6-weeks-old, from Charles River) were placed in cages (3 animals/cage) and preliminarily allowed food and water ad libitum and raised for 1 week. On the day of the experiment, their weight was measured, a water-absorbing sheet was placed below each cage, and the animals were fasted but allowed water ad libitum throughout the experiment. Three hours after fasting was initiated, the fecal pellets were recovered from each cage and observed for abnormality before the experiment, and then the compound suspended or dissolved in 0.5% (W/V) methyl cellulose (MC) was orally administered into each rat in a dose of 5 ml/kg. On one hand, 0.5% (W/V) MC only was orally given to the control group. After administering the compound, the rats were returned to the cage provided with anew water-absorbing sheet of known weight, and 180 minutes after the administration, the fecal pellets on the water-absorbing sheet were recovered from each cage, and the external appearance was observed, and the number of fecal pellets was counted. The number of fecal pellets is expressed per each cage (Table 4). After the fecal pellets were recovered, the water-absorbing sheet was weighed, and the weight determined by subtracting the initial weight of the water-adsorbing sheet from the weight after the experiment was regarded as the volume of urine and expressed as the volume of urine per 100 g of the body weight (Table 4).

[7] = Urine volume / diuretic action in rat (Test Example 2); assay type: in vivo; conditions: for Urine Volume (g/100 g body weight): 180 minutes
Experimental: as §3

SD IGS rats [8] = test: Contribution of A2b inhibition to defecation-promoting action (Test Example 3); assay type: in vivo, rat; conditions: 180 minutes
Experimental: as §3
After administering the compounds, the rats were returned to the cage under which a new water-absorbing sheet had been installed, and after 180 minutes, the fecal pellets on the water-absorbing sheet were recovered from each cage, and the outward appearance was observed and the number of fecal pellets was counted. The number of fecal pellets is expressed per cage (Table 5).

colon tract [9] = test: Contraction of the colon tract with Carbachol; parameters: species or system rat
Experimental: as §1
Carbachol (Sigma) at each concentration diluted 100-fold was added accumulatively in a volume of 1/100 to the Magnus tube, and the change in the length of the colon tract was measured, and the length thereof in the absence of Carbachol was regarded as 0% contraction, and the length thereof in the presence of 1.44 μM Carbachol was regarded as 100% contraction. In the experiment, 3 samples were used.

[10] = against NECA, KCl + tetrodotoxin
[11] = 3 mg/kg oral, Table 8, n = 4 cages/group
[12] = 10 mg/kg oral, Table 8, n = 4 cages/group

CCCn1c(=O)c2[nH]c(C3CCCC3)nc2n(CCC)c1=O [DPCPX]
pA2 value of the antagonistic action [1]: 8.8
pA2 value ([2]; against CPA, KCl + tetrodotoxin): 7.0
pA2 value [2, 10]: 6.6

CCCN1C(=O)N2CC(CC)N=C2c2[nH]c(C34CC5CC(CC3C5)C4)nc21 (stereo not shown) [KW 20274]
Contraction (%) Mean (colon tract [3]; antagonist 0.1 μM): −8.2%
Contraction (%) Mean (colon tract [3]; antagonist 0.4 μM): −26.0%
Contraction (%) Mean (colon tract [3]; antagonist 1.4 μM): −40.0%
Contraction (%) Mean (colon tract [3]; antagonist 4.4 μM): −71.0%
Inhibition of the suppressing effect of NECA on the contraction (in words) (colon tract [3]; rat colon tract, Carbachol + NECA): did not show any inhibitory effect

CCNC(=O)[C@H]1O[C@@H](n2cnc3c(N)ncnc32)[C@H](O)[C@@H]1O [NECA, 5′-N-ethylcarboxyamide adenosine]
Contraction (%) Mean (colon tract [4]; NECA 0.1 μM): 89.0%
Contraction (%) Mean (colon tract [4]; NECA 0.4 μM): 75.3%
Contraction (%) Mean (colon tract [4]; NECA 14.4 μM): 54.9%
EC50 [2]: 10.4 µM

Cn1cc(-n2c(-c3cccc(F)c3)nc3c(N)ncnc32)ccc1=O [Compound II, 5-[6-amino-8-(3-fluorophenyl)-9H-9-purinyl]-1-methyl-1,2-di hydro-2-pyridinone]
The number of fecalpellets/3 rats (SD IGS rats [5]; 1 mg/kg oral, Table 8, n = 4 cages/group): 12.5 ± 1.44 fecalpellets/3 rats
The number of fecalpellets/3 rats (SD IGS rats [5]; [11]): 18.5 ± 1.94 fecalpellets/3 rats
The number of fecalpellets/3 rats (SD IGS rats [5]; [12]): 20.75 ± 1.70 fecalpellets/3 rats

OC[C@H]1O[C@@H](n2cnc3c(NC4CCCC4)ncnc32)[C@H](O)[C@@H]1O [CPA]
EC50 [2]: 12.6 µM

CCCn1c(=O)c2nc(C34CC5CC(CC3C5)C4)[nH]c2n(CCC)c1=O [KW 3902]
The number of fecalpellets/3 rats (SD IGS rats [6]; 0.3 mg/kg oral): 10.67 ± 2.08 fecalpellets/3 rats
The number of fecalpellets/3 rats (SD IGS rats [6]; 1 mg/kg oral): 14.50 ± 1.18 fecalpellets/3 rats
The number of fecalpellets/3 rats (SD IGS rats [6]; 3 mg/kg oral): 12.83 ± 1.66 fecalpellets/3 rats
Dose at which the defecation-promoting action reaches the maximum (SD IGS rats [6]; rat, oral): 1 mg/kg
Defecation-promoting action (in words) (SD IGS rats [6]; rat, oral, Table 4): exhibits a defecation-promoting action
Urine Volume (g/100 g body weight) ([7]; 0.3 mg/kg oral): 2.08 ± 0.04 g/100 g body weight
Urine Volume (g/100 g body weight) ([7]; 1 mg/kg oral): 2.15 ± 0.09 g/100 g body weight
Urine Volume (g/100 g body weight) ([7]; 3 mg/kg oral): 2.01 ± 0.06 g/100 g body weight
Diuretic action (comparison in words) ([7]; rat, oral): stronger diuretic action than Compound I
The number of fecalpellets/3 rats (SD IGS rats [8]; 1 mg/kg together with KW 6002 (1 mg/kg)): 18.25 ± 1.49 fecalpellets/3 rats
The number of fecalpellets/3 rats (SD IGS rats [8]; 1 mg/kg, without KW 6002): 9.00 ± 1.08 fecalpellets/3 rats

C[N+](C)(C)CCOC(N)=O [Carbachol]
Contraction (%) Mean (colon tract [9]; Carbachol 0.01 μM, 1.44 μM Carbachol = 100%): 1.4%
Contraction (%) Mean (colon tract [9]; Carbachol 0.04 μM, 1.44 μM Carbachol = 100%): 24.5%
Contraction (%) Mean (colon tract [9]; Carbachol 0.14 μM, 1.44 μM Carbachol = 100%): 69.1%
Contraction (%) Mean (colon tract [9]; Carbachol 0.44 μM, 1.44 μM Carbachol = 100%): 87.0%
Contraction (%) Mean (colon tract [9]; Carbachol 1.44 μM (defined as 100%)): 100.0%

Nc1nc(N)c(-c2ccncc2)c(-c2cccc(F)c2)n1 [Example 1, 6-(3-Flurophenyl)-5-(4-pyridyl)-2,4-pyrimidine diamine]
The number of fecalpellets/3 rats (SD IGS rats [5]; 3 mg/kg oral, Table 10, n = 6 cages/group): 14.83 ± 1.82 fecalpellets/3 rats
The number of fecalpellets/3 rats (SD IGS rats [5]; 10 mg/kg oral, Table 10, n = 6 cages/group): 23.17 ± 2.94 fecalpellets/3 rats

Cn1c(=O)c2[nH]c(-c3ccccc3)nc2n(C)c1=O [Example 8-PT, 8-phenyltheophylline]
The number of fecalpellets/3 rats (SD IGS rats [5]; [11]): 8.75 ± 1.75 fecalpellets/3 rats
The number of fecalpellets/3 rats (SD IGS rats [5]; [12]): 13.75 ± 0.85 fecalpellets/3 rats
pA2 value of the antagonistic action [1]: 6.5
pA2 value [2, 10]: 5.7

CCNC(=O)[C@H]1O[C@@H](n2cnc3c(N)nc(NCCc4ccc(CCC(=O)O)cc4)nc32)[C@H](O)[C@@H]1O [CGS21680, 2-p-[2-carboxyethyl]phenetylamino-5′-N-ethylarboxyamide adenosine]
Relaxing action (in words) [1]: very weak
Relaxing action (in words) ([2]; 1 μM, KCl + tetrodotoxin): did not act thereon
